In PubChem BioAssay (NCI):
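Values below derive from 48-hour exposures of cells grown in 96-well plates, with endpoints linearly interpolated between the two concentrations bracketing the appropriate inhibition level. The concentration for 50% growth inhibition is given as GI50. At the TGI there is no net growth.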

Experiments:
Experiment in all cases: inhibition of tumour cell growth, NCI panel, 48 h
786-0 renal = system: 786-0 renal
EKVX NSCLC = system: EKVX NSCLC
HCT-116 colon = system: HCT-116 colon
IGROV1 ovarian = system: IGROV1 ovarian
NCI-H460 lung = system: NCI-H460 lung
OVCAR-4 ovarian = system: OVCAR-4 ovarian
SK-MEL-2 melanoma = system: SK-MEL-2 melanoma
SK-OV-3 ovarian = system: SK-OV-3 ovarian
SNB-19 CNS = system: SNB-19 CNS
TK-10 renal = system: TK-10 renal

SMILES	GI50 (786-0 renal) [µM]	TGI (786-0 renal) [µM]	GI50 (EKVX NSCLC) [µM]	TGI (EKVX NSCLC) [µM]	GI50 (HCT-116 colon) [µM]	TGI (HCT-116 colon) [µM]	GI50 (IGROV1 ovarian) [µM]	TGI (IGROV1 ovarian) [µM]	GI50 (NCI-H460 lung) [µM]	TGI (NCI-H460 lung) [µM]	GI50 (OVCAR-4 ovarian) [µM]	TGI (OVCAR-4 ovarian) [µM]	GI50 (SK-MEL-2 melanoma) [µM]	TGI (SK-MEL-2 melanoma) [µM]	GI50 (SK-OV-3 ovarian) [µM]	TGI (SK-OV-3 ovarian) [µM]	GI50 (SNB-19 CNS) [µM]	TGI (SNB-19 CNS) [µM]	GI50 (TK-10 renal) [µM]	TGI (TK-10 renal) [µM]
C=C1C(=O)O[C@H]2[C@H]1CC/C(COC(=O)NCc1cc3ccccc3[nH]1)=C\CC[C@@]1(C)O[C@@H]21	1.76	3.52	1.64	3.53	1.37	2.77	1.46	3.46	3.78	14.6	2.2	7.63	2.46	7.25	13.8	26.8	5.62	20.4	2.26	4.19
CC[C@]1(O)CC2CN(CCc3c([nH]c4ccccc34)[C@@](C(=O)OC)(c3cc4c(cc3OC)N(C)[C@H]3[C@@](O)(C(=O)OC)[C@H](OC(C)=O)[C@]5(CC)C=CCN6CC[C@]43[C@@H]65)C2)C1 (stereo not given in full)	< 0.005	3.13	0.00956	> 50	< 0.005	0.269	0.00517	> 30	< 0.005	5.8	0.0303	> 50	< 0.005	6.95	< 0.005	0.00977	< 0.005	15.6	0.148	13.9
CC1=C(/C=C/C(C)=C\C=C\C(C)=C\C(=O)Nc2ccc3c(c2)OCO3)C(C)(C)CCC1	40.2	> 100	62.3	> 100	29.5	> 100	> 100	> 100	50.5	> 100	21	> 100	61.6	> 100	> 100	> 100	> 100	> 100	> 100	> 100
CC(=O)OC[C@H]1O[C@@H](n2ccc(=O)[nH]c2=O)[C@H](OC(C)=O)[C@@H]1OC(C)=O	> 100	> 100	> 100	> 100	> 100	> 100	> 100	> 100	> 100	> 100	> 100	> 100	> 100	> 100	> 100	> 100	> 100	> 100	> 100	> 100
CC1=C([Se]CC(OC(=O)CC[Se]c2ccccc2)C(=O)NCCCCCC(=O)OCc2ccccc2)C(=O)c2ccccc2C1=O (stereo not given)	3.18	8.36	2.96	29.2	2.12	6.53	1.31	4.11	1.78	5.34	2.28	6.56	3.32	9.96	3.95	7.27	2.72	11	4.47	12.4
O=c1n(C2CCCCC2)c(=C(Cl)Cl)c(=C(Cl)Cl)n1C1CCCCC1	–	> 100	–	> 100	–	> 100	–	> 100	–	> 100	–	> 100	–	> 100	–	> 100	–	> 100	–	> 100
O=C1C(Cl)=C(Cl)C(=O)N1C1C2CC3CC(C2)CC1C3 (stereo not given)	–	> 100	–	> 100	–	> 100	–	> 100	–	> 100	–	> 100	–	> 100	–	> 100	–	> 100	–	> 100
CC(O)/C=C/C(CCC(C)CO)C(C)C (stereo not given)	–	> 100	–	> 100	–	> 100	–	> 100	–	> 100	–	> 100	–	> 100	–	> 100	–	> 100	–	> 100
COc1ccc(/C=C/C(=O)c2cc3c(N)c(C(=O)Nc4ccccc4Cl)sc3nc2C)cc1	0.839	2.18	2.25	> 50	1.11	> 50	2.72	> 50	2.2	> 50	1.7	46	1.31	16.7	3.58	19	3.8	23.1	2.64	30.5
OCCCCC#Cc1ccccc1C#Cc1ccccc1	8.6	22.5	6.59	22.4	16.8	31.6	30.9	> 100	22.4	62.6	18	53.2	40	> 100	10.7	26.7	0.153	37.2	13.2	26.3
COc1cc2oc(=O)ccc2cc1C1OC(=O)C2OC21C (stereo not given)	–	> 100	–	> 100	–	> 100	–	> 100	–	> 100	–	> 100	–	> 100	–	> 100	–	> 100	–	> 100
O=S(=O)([O-])c1cccc2cccc(N=Cc3ccccc3[O-])c12.O=S(=O)([O-])c1cccc2cccc(N=Cc3ccccc3[O-])c12.[O]=[U]=[O]	33.7	> 100	> 100	> 100	22.3	> 100	70.6	> 100	55.6	> 100	41.6	> 100	> 100	> 100	> 100	> 100	45.6	> 100	21.3	67.3
CCCC[C@H]1C(=O)O[C@H](C)[C@H](NC(=O)c2cccc(NC=O)c2O)C(=O)O[C@@H](C)[C@@H]1OC(=O)CC(C)C	–	35	–	37.9	–	19.5	–	41.9	–	27.4	–	63.4	–	22.2	–	54.4	–	63.1	–	50.6
Cc1cccc(-c2nc3c(C(=O)NCCN(C)C)cccc3[nH]2)c1	–	7.88	–	3.5	–	1.55	–	4.06	–	5.99	–	3.64	–	3.26	–	6.07	–	7.68	–	4.95
OCc1cn(Cc2cccc(Cl)c2)c2ccccc12	5.15	28.1	17.3	56.1	< 0.0163	13.5	< 0.0271	0.507	0.0346	17.9	0.107	11.3	3.16	14.8	4.42	47.4	22.5	> 96.5	< 0.0145	0.21
CSc1nc(NC2OCC(OC(C)=O)C(OC(C)=O)C2OC(C)=O)c2c(OC(C)=O)c(C)c(=O)oc2n1 (stereo not given)	–	> 100	–	> 100	–	> 100	–	> 100	–	> 100	–	> 100	–	> 100	–	> 100	–	> 100	–	> 100
COC(=O)C1=C(C)N(NC(N)=O)C2(N)N(NC(N)=O)C(C)=C(C(=O)OC)C12C(=O)OC (stereo not given)	–	> 100	–	> 100	–	> 100	–	> 100	–	> 100	–	> 100	–	> 100	–	> 100	–	> 100	–	> 100
O=C(O)CNc1c2ccccc2nc2ccccc12	–	> 100	–	> 100	–	> 100	–	> 100	–	> 100	–	> 100	–	> 100	–	> 100	–	> 100	–	> 100
C/C(O)=C(\N=O)C(=O)NCCc1ccccc1	–	> 100	–	> 100	–	> 70.1	–	> 100	–	> 58.4	–	> 100	–	> 100	–	> 100	–	> 100	–	> 79.2
O=C1NC(=S)NC(=O)C1=Cc1cc2c(cc1[N+](=O)[O-])OCO2	–	> 100	–	> 100	–	> 100	–	> 100	–	> 100	–	> 100	–	> 100	–	> 100	–	> 100	–	> 100
CC(=O)Nc1ccc(/C=C/[N+](=O)[O-])cc1	–	7.61	–	12.9	–	6.07	–	7.35	–	20.7	–	7.97	–	25.6	–	24.1	–	20.5	–	6.89
Cc1ccccc1-c1c(N)nc(NC#N)nc1C(=O)Nc1ccccc1	–	> 100	–	> 100	–	> 100	–	> 100	–	> 100	–	> 100	–	> 100	–	> 100	–	> 100	–	> 100
Cc1c(N=Nc2ccc([N+](=O)[O-])cc2)nc2scc(-c3ccccc3)n12	–	> 100	–	> 100	–	> 100	–	> 100	–	> 100	–	> 100	–	> 100	–	> 100	–	> 100	–	> 100
